{"source": "patent US5304474A", "about": "“Hydrophobic peptide esters and amides” (Board of Regents, The University of Texas System, priority 1991, dated 1994)", "key": {"[1]": {"system": "MP-enriched adherent cells (AC)", "assay": "51Cr release toxicity assay", "format": "cell-based, human", "method": "(§1) In some experiments, toxicity of Leu-Leu-OMe for a variety of cell populations was assessed by ^51 Cr release In assays where cells obtained from suspension culture were to be used, cells were labeled with Na2^51 CrO4 (ICN, Plainview, N.Y.) for 60-90 minutes at 37° C. and then washed three times. Cells were then suspended in PBS (2.5×10^6 /ml) and incubated in microtiter plates, 50 microL/well with indicated concentrations of Leu-Leu-OMe for 15 minutes at room temperature. […] Following ^51 Cr labeling, wells were thoroughly washed and varying concentrations of Leu-Leu-OMe added in 50 microL PBS and the plates incubated for 15 minutes at room temperature.\n(§2) Following such initial serum-free incubations, 200 microL/well of medium RPMI containing 10% FBS were added and the plates incubated for another 4 hours prior to removal of 100 microliters of supernatant. Radioactivity in the supernatant was measured in an auto-gamma scintillation spectrometer (Packard Instrument Co., Downers Grove, Ill.). The percent specific release was calculated from the formula: [formula] in which maximal release refers to cpm obtained in wells containing 50% lysing agent (American Scientific Products, McGraw Park, Ill.) and spontaneous release refers to cpm released by cells incubated in control medium in the absence of Leu-Leu-OMe or the lysing agent.\n(§3) In developing the data expressed in FIG. 7, cells (2.5×10^6 /ml) were exposed to the indicated concentrations of Leu-Leu-OMe for 15 minutes at room temperature, then specific ^51 Cr release during the next four hours was assessed."}, "T4 enriched T cells": {"system": "T4 enriched T cells", "assay": "51Cr release toxicity assay", "format": "cell-based, human", "method": "as §1, §2, §3"}, "[2]": {"system": "precursors of activated NK (AcNK)", "assay": "Elimination of activated NK-like cells (6 day MLC, lysis of K562)", "format": "cell-based, human", "method": "Experiments were also designed to assess the relative sensitivity of NK and CTL to Leu-Leu-OMe. In the studies detailed in FIGS. 8 and 9, cytotoxicity assays were performed over a broad range of E:T ratios and units of lytic activity arising from equal numbers of responding lymphocytes were calculated and compared. […] Only after exposure to greater than 250 micromolar Leu-Leu-OMe were all CTL precursors eliminated.\nNon-adherent lymphocytes (2.5×10^6 /ml) were incubated with the indicated concentrations of Leu-Leu-OMe for 15 minutes. Cells were then washed and either placed in mixed lymphocyte culture or assayed for specific lysis of K562 cells (NK). After 6 day MLC, cells were assayed for specific lysis of allogeneic stimulator lymphoblasts (CTL) or K562 (AcNK). Data are expressed as percent of control lytic units (mean+SEM, n=6).\nBoth values were also higher than the mean concentration of Leu-Leu-OMe required to diminish spontaneous NK lytic activity by 75% (35 micromolar±4 micromolar). […] Thus, only after MLC activation did CTL display a sensitivity to Leu-Leu-OMe toxicity that was equal to that of NK cells."}, "[3]": {"target": "dipeptidyl peptidase I (DPPI) (Bos taurus, UniProt Q3ZCJ8)", "sequence (Q3ZCJ8 231-394 limits assumed)": "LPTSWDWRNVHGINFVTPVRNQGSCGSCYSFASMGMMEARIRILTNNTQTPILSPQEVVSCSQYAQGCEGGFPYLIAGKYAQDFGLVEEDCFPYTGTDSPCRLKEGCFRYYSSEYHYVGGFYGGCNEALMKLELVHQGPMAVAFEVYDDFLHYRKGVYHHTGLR", "sequence (Q3ZCJ8 25-134 limits assumed)": "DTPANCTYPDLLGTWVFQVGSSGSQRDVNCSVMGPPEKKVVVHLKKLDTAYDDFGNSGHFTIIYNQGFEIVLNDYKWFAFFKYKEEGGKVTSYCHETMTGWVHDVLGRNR", "sequence (Q3ZCJ8 395-463 limits assumed)": "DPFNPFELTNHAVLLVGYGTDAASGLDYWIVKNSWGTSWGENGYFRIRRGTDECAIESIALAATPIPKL", "assay": "Dipeptidyl peptidase I catalyzed lysis of human RBC", "format": "cell-based, bovine", "conditions": "FIG. 12, FIG. 13", "method": "The following experiments were carried out to determine whether DPPI could generate a lytic product from Leu-Leu-OMe. In the experiment detailed in FIG. 12, ^51 Cr-labeled human erythrocytes (RBC) were incubated with varying concentrations of Leu-Leu-OMe alone or in the presence of purified bovine DPPI.\nIn the experiments detailed in FIG. 13, ^51 Cr-labeled RBC's were exposed to various dipeptide esters or amides in the presence or absence of purified DPPI. […] The first observation is probably related to the inability of this enzyme to catalyze transpeptidation of peptide esters containing D-stereoisomers of amino acids. The latter observations are likely to be related to the fact that polymers of Ser-Leu or Leu-Tyr are not hydrophobic and therefore unlikely to enter and disrupt cell membranes."}, "[4]": {"system": "graft vs. host disease (GVHD)", "assay": "Murine bone marrow transplantation, donor inoculum treated in vitro: survival and GVHD", "format": "in vivo, B6→B6D2F1 mice", "method": "Female, 8-16-wk-old, C57BL/6J (B6) and (C57BL/6J x DBA/2J)F1 mice (B6D2F1) were used as donors and recipients, respectively. For some experiments B6 donors were […] 70×10^6 cells/ml either in phosphate-buffered saline (PBS) or in Leu-Leu-OMe dissolved in PBS. Leu-Leu-OMe was synthesized from leucyl-leucine as previously described (10). After a 15 min incubation at room temperature, the cells were washed once, suspended in Hanks' balanced salt solution, counted, and infused via a lateral tail vein into irradiated (950 cGy) F1 recipients.\nSurvival times were measured from the day of transplantation to the day of death. Deaths occurring within 8 d of transplantation were considered to be the result of radiation-induced gastroenteritis and were excluded. The nonparametric Mann-Whitney test was used to determine whether the median survival times (MST) differed between groups (14).\nOrgans of recipient mice were fixed in 10% buffered formalin. Sections were stained with Hematoxylin and Eosin."}}}
{"smiles": "COC(=O)[C@H](CC(C)C)NC(=O)[C@@H](N)CC(C)C", "note": "[Leu-Leu-OMe, L-leucyl-L-leucine methyl ester]", "values": [{"measurement": "51Cr release", "setting": "[1]; 25-50 micromolar", "value": "minimal ^51 Cr release"}, {"measurement": "Leu--Leu--OMe Sensitivity (LD50)", "setting": "[1]; M--phi", "value": 75, "unit": "micro-M"}, {"measurement": "51Cr release", "setting": "T4 enriched T cells; 1000 micromolar", "value": "caused minimal ^51 Cr release"}, {"measurement": "Leu--Leu--OMe Sensitivity (LD50)", "setting": "T4 enriched T cells; T4 Cells", "value": "> 500", "unit": "micro-M"}, {"measurement": "precursors of activated NK, lytic units", "setting": "[2]; 100 micromolar, 15 minutes (FIG. 8)", "value": "totally eliminated"}, {"measurement": "mean concentration required to diminish lytic activity by 75%", "setting": "[2]; elimination of precursors of activated NK", "value": "50 ± 5", "unit": "µM"}, {"measurement": "RBC lysis in the presence of purified DPPI, in words", "setting": "[3]", "value": "RBC lysis occurs"}, {"measurement": "GVHD-mediated tissue injury", "setting": "[4]; 25×10^6 cells treated with 250 micro-M", "value": "had no evidence of cutaneous GVHD"}, {"measurement": "GVHD-mediated tissue injury", "setting": "[4]; 25×10^6 donor cells treated with 125 micro-M", "value": "manifested evidence of acute GVHD, although at somewhat diminished intensity"}, {"measurement": "GVHD-mediated tissue injury", "setting": "[4]; 50×10^6 treated cells", "value": "manifested acute cutaneous GVHD"}, {"measurement": "mice surviving >90 d (long-term survivors)", "setting": "[4]; immune donors, 37×10^6 donor cells treated with 250 micro-M", "value": "three of nine"}, {"measurement": "median survival time (MST)", "setting": "[4]; immune donors, 37×10^6 donor cells treated with 250 micro-M, untreated 11 d", "value": 49, "unit": "days"}, {"measurement": "median survival time (MST)", "setting": "[4]; naive donors, 25×10^6 donor cells treated with 125 micro-M, untreated 19 d", "value": 41.5, "unit": "days"}, {"measurement": "survival of all recipients", "setting": "[4]; naive donors, 25×10^6 donor cells treated with 250 micro-M, untreated MST 19 d", "value": "> 120", "unit": "days"}, {"measurement": "survival of all recipients", "setting": "[4]; naive donors, 50×10^6 donor cells treated with 250 micro-M, untreated MST 14 d", "value": "> 200", "unit": "days"}]}
